Results taken from ChEMBL document CHEMBL4130402, “Antiprotozoal Linear Furanosesterterpenoids from the Marine Sponge Ircinia oros” (J Nat Prod, 2017).
pIC50: −log10 of the molar value.

Key:
[1] = system: Trypanosoma brucei rhodesiense; assay: Antiprotozoal activity against blood stream form of Trypanosoma brucei rhodesiense STIB900 after 72 hrs by alamar blue assay; format: functional, organism-based; settings: STIB900, 72 h
Leishmania donovani = assay: Antiprotozoal activity against amastigote form of Leishmania donovani MHOM/ET/67/L82 after 72 hrs by alamar blue assay; format: functional, organism-based; settings: MHOM/ET/67/L82, 72 h
Plasmodium falciparum = assay: Antiprotozoal activity against erythrocytic form of chloroquine/pyrimethamine-resistant Plasmodium falciparum K1 after 48 hrs by [3H]-hypoxanthine incorporation assay; format: functional, organism-based
L6 = assay: Cytotoxicity against rat L6 cells after 72 hrs by alamar blue assay; format: cell-based; settings: L6, 72 h
Trypanosoma cruzi = assay: Antiprotozoal activity against trypomastigote form of Trypanosoma cruzi Tulahuen C2C4 infected in rat L6 cells after 96 hrs by CPRG/Nonidet-based […]; format: functional, organism-based; settings: Tulahuen C2C4, L6, 96 h

SMILES | pIC50 [1] | pIC50 (Leishmania donovani) | pIC50 (Plasmodium falciparum) | pIC50 (L6) | pIC50 (Trypanosoma cruzi)
CC1=C(O)/C(=C/[C@H](C)CCC/C(C)=C/CCc2coc(CC3=CCN(CC(=O)O)C3=O)c2)OC1=O | 3.89 | 3.92 | 4.02 | < 3.70 | –
CC1=C(O)/C(=C/[C@H](C)CCC/C(C)=C/CCC2=CC(Cc3ccoc3)N(CC(=O)O)C2=O)OC1=O (stereo partly specified) | 3.89 | 4.02 | < 4.00 | < 3.70 | –
O=C(Cn1ccnc1[N+](=O)[O-])NCc1ccccc1 [BENZNIDAZOLE] | – | – | – | – | 5.51
CC1=C(O)/C(=C/[C@H](C)CCC/C(C)=C/CCc2coc(Cc3ccoc3)c2)OC1=O [IRCININ 1] | 4.01 | 4.51 | 4.24 | 3.82 | 3.92
CC1=C(O)/C(=C/[C@H](C)CC/C=C(/C)CCCc2coc(Cc3ccoc3)c2)OC1=O [IRCININ 2] | 4.19 | 4.55 | 4.25 | 3.85 | 3.96
Nc1nc(N)nc(Nc2ccc([As]3SCC(CO)S3)cc2)n1 (stereo unspecified) [MELARSOPROL] | 7.82 | – | – | – | –
COc1cc([C@@H]2c3cc4c(cc3[C@H](O)[C@H]3COC(=O)[C@H]23)OCO4)cc(OC)c1OC [PODOFILOX] | – | – | – | 8.00 | –
